These compounds were tested on HBV (assay: HepAD38 antiviral assay: reduction of viral product accumulation (virion DNA by qPCR, HBsAg or HBeAg by ELISA)). Settings: Hepatitis B virus, 120 h; HepAD38 cells, five days after compound addition; 50% reduction of viral product vs no drug controls; read-out: HepAD38 EC50.
Format: cell-based, hepatitis B virus
Description: Methods: HepAD38 cells are maintained as previously reported (Ladner et al, Antimicrob. Agents Chemother. 1997, […], 1715). Briefly, cells are passaged upon attaining confluency in DMEM/F12 media in the presence of 10% FBS, Penn/Strep, 250 μg/mL G418, and 1 ug/ml tetracycline. Novel compounds are screened by first washing cells three times with PBS to remove tetracycline, and plating in 96 well plates at 35,000 cells/well. Compounds dissolved in DMSO are then diluted 1:200 into wells containing cells. Five days after compound addition, material is harvested for analysis. For an extended 8 days analysis, cells are plated and treated as described above, but media and compound are refreshed on d2 and d5 post initial treatment.
On harvest day, virion DNA is obtained by lysing with Sidestep Lysis and Stabilization Buffer and then quantified via quantitative real time PCR. Commercially available ELISA kits are used to quantitate the viral proteins HBsAg (Alpco) or HbeAg (US Biological) by following the manufacturer's recommended protocol after diluting samples to match the linear range of their respective assays.
`C[C@H](O)[C@@H](O)[C@]1(O)C2CCC1C[C@@H](S(=O)(=O)c1cc(C(=O)Nc3ccc(F)c(F)c3)n(C)c1)C2` [Example 341] showed an EC50 greater than 0.2 µM.
With `O=C1CC[C@H](C(=O)NC[C@@]2(O)C3CC[C@H]2C[C@H](S(=O)(=O)c2cc(C(=O)Nc4cc(F)c(F)c(F)c4)ccc2Cl)C3)N1` [Example 128] the EC50 was greater than 0.2 µM.
Work on `O=C(Nc1ccc(F)c(F)c1)c1ccc(Cl)c(S(=O)(=O)CC2CC(O)(CO)C2)c1` (centres unmarked) [Example 200] yielded an EC50 greater than 0.2 µM.
In the case of `CC(=O)C[C@]1(O)CC[C@@H](CS(=O)(=O)c2cc(C(=O)Nc3ccc(F)c(F)c3)ccc2Cl)CC1` [Example 223], the EC50 is reported as 0.1 to 0.2 µM.
Compound `Cc1ccnc([C@@H](O)[C@@]2(O)C3CC[C@H]2C[C@H](S(=O)(=O)c2cc(C(=O)Nc4ccc(F)c(F)c4)ccc2Cl)C3)c1` [Example 296b] has an EC50 of less than 0.104 µM.
For `C[C@]1(O)C2CCC1C[C@@H](S(=O)(=O)c1cc(C(=O)Nc3ccc(F)c(F)c3)c(Br)cc1Cl)C2` [Example 100], the EC50 was less than 0.104 µM.
For `CC(C)([C@H]1CC[C@H](O)CC1)S(=O)(=O)c1cc(C(=O)Nc2ccc(F)c(F)c2)ccc1Cl` [Example 236], the EC50 was greater than 0.2 µM.
In the case of `C[C@@H](CO)NC(=O)[C@H]1C[C@@H](S(=O)(=O)c2cc(C(=O)Nc3ccc(F)c(F)c3)ccc2Cl)C1` [Example 256b], the EC50 is reported as greater than 0.2 µM.
Compound `CC(C)([C@H]1CC[C@@H](O)CC1)S(=O)(=O)c1cc(C(=O)Nc2ccc(F)c(F)c2)ccc1Cl` [Example 235] has an EC50 greater than 0.2 µM.
Compound `COCCOCCOC[C@]1(O)C2CCC1C[C@@H](S(=O)(=O)c1cc(C(=O)Nc3cc(F)c(F)c(F)c3)ccc1Cl)C2` [Example 99] has an EC50 of less than 0.104 µM.
With `O=C(Nc1ccc(F)c(F)c1)c1ccc(Cl)c(S(=O)(=O)C2CC(C(=O)NCCO)C2)c1` (centres unmarked) [Example 254] the EC50 was greater than 0.2 µM.
With `O=C(Nc1ccc(F)c(F)c1)c1ccc(Cl)c(S(=O)(=O)[C@@H]2CC3CC[C@@H](C2)[C@@]3(O)C(O)c2ccc3ccccc3n2)c1` (some centres unmarked) [Example 301] the EC50 was less than 0.104 µM.
With `Cc1ccc(C(O)[C@]2(O)C3CCC2C[C@@H](S(=O)(=O)c2cc(C(=O)Nc4ccc(F)c(F)c4)ccc2Cl)C3)nc1` (some centres unmarked) [Example 293] the EC50 was less than 0.104 µM.
In the case of `O=C(C[C@]1(O)C2CCC1C[C@@H](S(=O)(=O)c1cc(C(=O)Nc3ccc(F)c(F)c3)ccc1Cl)C2)NCCO` [Example 184], the EC50 is reported as less than 0.104 µM.
Compound `C=CC1(O)CC(S(=O)(=O)c2cc(C(=O)Nc3ccc(F)c(F)c3)ccc2Cl)C1` (centres unmarked) [Example 260] has an EC50 greater than 0.2 µM.
`C[C@]1(O)C2CCC1C[C@@H](S(=O)(=O)c1cc(C(=O)Nc3cc(F)cc(F)c3)ccc1Cl)C2` [Example 105] gave an EC50 of less than 0.104 µM.
Work on `C[C@H](O)COCC1(O)CC(S(=O)(=O)c2cc(C(=O)Nc3ccc(F)c(F)c3)ccc2Cl)C1` (some centres unmarked) [Example 230] yielded an EC50 greater than 0.2 µM.
Work on `C[C@H](O)COCC1(O)CC(CS(=O)(=O)c2cc(C(=O)Nc3ccc(F)c(F)c3)ccc2Cl)C1` (some centres unmarked) [Example 208] yielded an EC50 greater than 0.2 µM.
`C[C@]1(O)C2CCC1C[C@@H](S(=O)(=O)c1cc(C(=O)Nc3ccc(C#N)c(F)c3)ccc1Cl)C2` [Example 45] showed an EC50 greater than 0.2 µM.
`C[C@]1(O)C2CCC1C[C@@H](S(=O)(=O)c1cc(C(=O)Nc3cccnn3)ccc1Cl)C2` [Example 213] was tested, and the EC50 was greater than 0.2 µM.
In the case of `O=C(Nc1ccc(F)c(F)c1)c1ccc(Cl)c(S(=O)(=O)C2CC(O)(CCCO)C2)c1` (centres unmarked) [Example 241], the EC50 is reported as greater than 0.2 µM.
With `O=C(Nc1ccc(F)c(F)c1)c1ccc(Cl)c(S(=O)(=O)[C@H]2CC3CCC(C2)[C@]3(O)C(O)C(O)c2cccnc2)c1` (some centres unmarked) [Example 321] the EC50 was less than 0.104 µM.
With `CC(C)(C)OC(=O)N1CC[C@H](O)[C@H]1C(=O)NC[C@@]1(O)C2CC[C@H]1C[C@H](S(=O)(=O)c1cc(C(=O)Nc3cc(F)c(F)c(F)c3)ccc1Cl)C2` [Example 77] the EC50 was greater than 0.2 µM.
`C[C@@H](O)COCC1(O)CC(CS(=O)(=O)c2cc(C(=O)Nc3ccc(F)c(F)c3)ccc2Cl)C1` (some centres unmarked) [Example 209] showed an EC50 greater than 0.2 µM.
Work on `CC(O)C(O)CNC(=O)[C@]1(O)C2CCC1C[C@@H](S(=O)(=O)c1cc(C(=O)Nc3cc(F)c(F)c(F)c3)ccc1Cl)C2` (mixture of isomers) [Example 38] yielded an EC50 greater than 0.2 µM.

Same assay, conditions: Hepatitis B virus, HePAD38, 120 h, read-out: HepAD38 EC50 (μM)
Compound `O=C(Nc1cc(F)c(F)c(F)c1)c1ccc(Cl)c(S(=O)(=O)[C@@H]2CC3CC[C@@H](C2)N3C[C@H](O)CO)c1` [Example 153] has an EC50 of 0.1 to 0.2 µM.

Source: US11596611B2, “Hepatitis B antiviral agents” (ENANTA PHARMACEUTICALS, INC., priority 2017, dated 2023)
